Data taken from patent US20230381142A1, “ANTILEISHMANIAL COMPOUNDS, COMPOSITIONS AND USE THEREOF” (TRUSTEES OF BOSTON UNIVERSITY, priority 2022, published 2023).
Like-named read-outs stand apart in the source and are kept apart here.

Columns and labels:
[1] = test system: L. donovani intracellular amastigotes infecting THP-1 macrophages; assay: GSK intramacrophage L. donovani assay (LD AMMAC, inMac; Assay Conditions C); type: cell-based; conditions: Leishmania donovani
Summary of the method: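 L. donovani amastigotes within THP-1 macrophages; EC50 based on average intracellular amastigotes per infected cell (AMMAC). Infected-cell percentage (INFCELL) and host-cell number (MAC) also read, the latter as toxicity output.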

[2] = GSK inMac assay, host cell toxicity readout (LD MAC); type: cell-based, human; conditions: human
Summary of the method: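 Intramacrophage L. donovani assay in THP-1 macrophages; host toxicity taken from host cell number per well, giving MAC EC50. Run alongside amastigote-per-cell and infected-cell readouts in the same wells.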

[3] = values marked c: THP-1 cells, read-out: L. donovani amastigotes EC50 (μM, THP-1 or B10R cells)
[4] = THP-1 cells, values marked c, read-out: L. donovani amastigotes EC50 (THP-1 cells)
[5] = footnote c, read-out: THP-1 Host Cell CC50

Compound | EC50 [1, 3] [µM] | CC50 ([2]; host THP-1 cells) [µM] | EC50 [1, 4] [µM] | CC50 [2, 5] [µM]
COc1ccccc1N1C(=O)c2[nH]nc(CC(C)C)c2C1C1CCCCC1 (stereo not shown) [CMLD011045] | 10 | 25.1 |  | 
COc1ccccc1N1C(=O)c2[nH]nc(CC(C)C)c2C1c1ccc(F)cc1 (stereo not shown) [CMLD011046] |  |  | 20 | > 50
CC(C)Cc1n[nH]c2c1C(c1ccccc1Cl)N(c1ccc(C(C)(C)C)cc1)C2=O (stereo not shown) [CMLD011047] | 3.2 | 7.9 |  | 
COc1cc(N2C(=O)c3[nH]nc(CC(C)C)c3C2c2ccc(F)cc2)ccc1F (stereo not shown) [CMLD011073] | 20 | 15.8 |  | 
COc1ccc(N2C(=O)c3[nH]nc(CC(C)C)c3C2c2nccs2)cc1 (stereo not shown) [CMLD011075] |  |  | 20 | > 50
COc1ccc(N2C(=O)c3[nH]nc(CC(C)C)c3[C@H]2c2cccc(C(F)(F)F)c2)cn1 [CMLD011076] | 10 | 15.8 |  | 
COc1cc(N2C(=O)c3[nH]nc(CC(C)C)c3C2c2ccccc2Br)cc(OC)c1OC (stereo not shown) [CMLD011077] | 6.3 | 6.3 |  | 
CC(C)Cc1n[nH]c2c1C(c1ccccc1Cl)N(c1ccc(F)cc1)C2=O (stereo not shown) [CMLD011078] | 4 | 20 |  | 
COc1ccc(N2C(=O)c3[nH]nc(CC(C)C)c3C2c2ccc(F)cc2F)cc1 (stereo not shown) [CMLD011079] |  |  | 2 | 25.1
COC(=O)c1ccc(N2C(=O)c3[nH]nc(CC(C)C)c3C2c2cccc(C(F)(F)F)c2)cc1 (stereo not shown) [CMLD011080] | 10 | 39.8 |  | 
CC(C)Cc1n[nH]c2c1C(c1cccc(C(F)(F)F)c1)N(c1ccc(Br)cc1)C2=O (stereo not shown) [CMLD011081] |  |  | 31.6 | 31.6
CC(C)Cc1n[nH]c2c1C(C1CCCCC1)N(c1ccc(Br)cc1)C2=O (stereo not shown) [CMLD011087] | 6.3 | 7.9 |  | 
COc1ccc(N2C(=O)c3[nH]nc(CC(C)C)c3C2c2cccc(OC)c2)cc1 (stereo not shown) [CMLD011088] |  |  | 4 | 20
COc1ccc(N2C(=O)c3[nH]nc(CC(C)C)c3C2C2CCCCC2)cc1F (stereo not shown) [CMLD011090] | 5 | ≥ 50.1 |  | 
Cc1ccc(CN2C(=O)c3[nH]nc(CC(C)C)c3C2c2ccc(F)cc2)o1 (stereo not shown) [CMLD011092] |  |  | 15.9 | 39.8
COc1ccc(N2C(=O)c3[nH]nc(-c4ccc(Cl)cc4Cl)c3C2c2ccc(F)cc2)cc1 (stereo not shown) [CMLD011093] |  |  | 20 | > 50
COC(=O)c1ccc(N2C(=O)c3[nH]nc(CC(C)C)c3C2C2CCCCC2)cc1 (stereo not shown) [CMLD011094] |  |  | 39.8 | > 50
CC(C)Cc1n[nH]c2c1C(c1ccc(F)cc1)N(c1ccccn1)C2=O (stereo not shown) [CMLD011095] |  |  | 20 | > 50
COc1ccc(N2C(=O)c3[nH]nc(CC(C)C)c3C2c2ccc(Cl)cc2)cc1 (stereo not shown) [CMLD011096] |  |  | 4 | 15.9

Compound | EC50 [1, 3] [µM] | CC50 ([2]; host THP-1 cells) [µM] | EC50 [1, 4] [µM] | CC50 [2, 5] [µM]
CC(C)Cc1n[nH]c2c1C(c1ccc(F)cc1)N(c1ccc(F)cc1F)C2=O (stereo not shown) [CMLD011097] |  |  | 12.6 | 39.8
CC(C)Cc1n[nH]c2c1C(c1ccc(F)cc1)N(c1cccnc1)C2=O (stereo not shown) [CMLD011098] |  |  | 25.1 | > 50
COc1ccc(N2C(=O)c3[nH]nc(CC(C)C)c3C2c2cccc(Cl)c2)cc1 (stereo not shown) [CMLD011099] |  |  | 7.9 | 39.8
COc1ccc(N2C(=O)c3[nH]nc(CC(C)C)c3C2c2ccccc2F)cc1 (stereo not shown) [CMLD011102] |  |  | 3.2 | 31.6
COc1ccc(N2C(=O)c3[nH]nc(CC(C)C)c3C2c2ccccc2Cl)c(OC)c1 (stereo not shown) [CMLD011103] |  |  | 10 | 20
COc1ccc(N2C(=O)c3[nH]nc(CC(C)C)c3C2c2ccsc2)cc1 (stereo not shown) [CMLD011104] |  |  | 6.3 | > 50
CC(C)Cc1n[nH]c2c1C(c1ccc(F)cc1)N(c1ccc3c(c1)OC(F)(F)O3)C2=O (stereo not shown) [CMLD011105] |  |  | 2.5 | 12.6
COc1ccc(N2C(=O)c3[nH]nc(CC(C)C)c3C2c2cccc(C(F)(F)F)c2)cc1F (stereo not shown) [CMLD011106] |  |  | 6.3 | 25.1
COc1ccc(N2C(=O)c3[nH]nc(CC(C)C)c3C2c2ccccc2Br)c(OC)c1 (stereo not shown) [CMLD011109] |  |  | 6.3 | 15.8
COc1ccc(N2C(=O)c3[nH]nc(CC(C)C)c3C2c2cccs2)cc1 (stereo not shown) [CMLD011110] |  |  | 7.9 | > 50
CC(C)Cc1n[nH]c2c1C(c1ccccc1Br)N(c1ccc(F)cc1)C2=O (stereo not shown) [CMLD011111] |  |  | 4 | 15.8
COc1ccccc1N1C(=O)c2[nH]nc(CC(C)C)c2C1c1ccccc1Br (stereo not shown) [CMLD011112] |  |  | 12.6 | 25.1
CC(C)Cc1n[nH]c2c1C(c1ccc(F)cc1)N(c1ccc(F)cc1)C2=O (stereo not shown) [CMLD011113] |  |  | 6.3 | 25.1
COc1ccc(N2C(=O)c3[nH]nc(CC(C)C)c3C2c2cccc(C(F)(F)F)c2)c(OC)c1 (stereo not shown) [CMLD011115] |  |  | 12.6 | 20
COc1cc(N2C(=O)c3[nH]nc(CC(C)C)c3C2c2ccccc2Cl)cc(OC)c1OC (stereo not shown) [CMLD011116] |  |  | 5 | 6.3
COCCN1C(=O)c2[nH]nc(CC(C)C)c2C1c1ccc(F)cc1 (stereo not shown) [CMLD011117] |  |  | > 50 | > 50
CC(C)Cc1n[nH]c2c1C(c1cccc(C(F)(F)F)c1)N(c1ccc(F)cc1)C2=O (stereo not shown) [CMLD011119] |  |  | 2.5 | 25.1
COc1ccc(N2C(=O)c3[nH]nc(CC(C)C)c3C2c2ccc(F)c(C)n2)cc1 (stereo not shown) [CMLD011120] |  |  | 12.6 | > 50
COc1ccc(N2C(=O)c3[nH]nc(CC(C)C)c3C2c2ccc(C(F)(F)F)cc2)cc1 (stereo not shown) [CMLD011121] |  |  | 8 | 15.9

Compound | EC50 [1, 3] [µM] | CC50 ([2]; host THP-1 cells) [µM] | EC50 [1, 4] [µM] | CC50 [2, 5] [µM]
CC(C)Cc1n[nH]c2c1C(c1cccc(C(F)(F)F)c1)N(c1ccc(C(C)(C)C)cc1)C2=O (stereo not shown) [CMLD011122] |  |  | 6.3 | 10
CC(C)Cc1n[nH]c2c1[C@@H](c1ccc(F)cc1)N([C@H]1CC[C@H](N(C)C)CC1)C2=O [CMLD011124] |  |  | 25.1 | > 50
COc1ccc(N2C(=O)c3[nH]nc(CC(C)C)c3C2c2ccccn2)cc1 (stereo not shown) [CMLD011125] |  |  | 31.6 | > 50
CC(C)Cc1n[nH]c2c1C(c1cccc(C(F)(F)F)c1)N(CCN1CCCC1)C2=O (stereo not shown) [CMLD011126] |  |  | 20 | 39.8
CC(C)Cc1n[nH]c2c1C(c1ccc(F)cc1)N(CC1CCN(C)C1)C2=O (stereo not shown) [CMLD011129] |  |  | > 50 | > 50
COc1ccccc1N1C(=O)c2[nH]nc(CC(C)C)c2C1c1ccccc1Cl (stereo not shown) [CMLD011130] |  |  | 15.8 | 25.1
CC(C)Cc1n[nH]c2c1C(c1cccc(Cl)c1)N(c1ccc(C(C)(C)C)cc1)C2=O (stereo not shown) [CMLD011131] |  |  | 2.5 | 15.8
CC(C)Cc1n[nH]c2c1C(c1cccc(Cl)c1)N(c1ccc3c(c1)OCO3)C2=O (stereo not shown) [CMLD011132] |  |  | 5 | 20
COc1cccc(N2C(=O)c3[nH]nc(CC(C)C)c3C2c2cccc(Cl)c2)c1 (stereo not shown) [CMLD011133] |  |  | 5 | 25.1
COc1ccccc1N1C(=O)c2[nH]nc(CC(C)C)c2C1c1cccc(Cl)c1 (stereo not shown) [CMLD011134] |  |  | 7.9 | 15.8
CC(C)Cc1n[nH]c2c1C(c1ccsc1)N(c1ccc(C(C)(C)C)cc1)C2=O (stereo not shown) [CMLD011135] |  |  | 4 | > 50
COc1ccc(N2C(=O)c3[nH]nc(CC(C)C)c3C2c2ccsc2)cn1 (stereo not shown) [CMLD011137] |  |  | 10 | 25.1
COc1ccccc1N1C(=O)c2[nH]nc(CC(C)C)c2C1c1ccsc1 (stereo not shown) [CMLD011138] |  |  | 7.9 | 15.8
COc1cccc(N2C(=O)c3[nH]nc(CC(C)C)c3C2c2cccc(C(F)(F)F)c2)c1 (stereo not shown) [CMLD011140] |  |  | 5 | 20
COc1ccccc1N1C(=O)c2[nH]nc(CC(C)C)c2C1c1cccc(C(F)(F)F)c1 (stereo not shown) [CMLD011141] |  |  | 7.9 | 20
COc1ccc(N2C(=O)c3[nH]nc(CC(C)C)c3C2c2ccncc2)cc1 (stereo not shown) [CMLD011142] |  |  | > 50 | > 50
CC(C)Cc1n[nH]c2c1C(c1ccc(F)cc1)N(c1ccc(S(N)(=O)=O)cc1)C2=O (stereo not shown) [CMLD011495] |  |  | > 100 | 20
COc1ccc(N2C(=O)c3[nH]nc(CC(C)C)c3C2c2ccncc2Cl)cc1 (stereo not shown) [CMLD011496] |  |  | 10 | 20
